Source: US11191736B2, “Pharmaceutical formulations containing cannabidiol and nicotine for treating smokeless tobacco addiction” (CV Sciences, Inc., priority 2016, dated 2021)

Experiments:
[1] = system: monoamine oxidase (MAO); conditions: Current Drug Safety, 2011, Vol. 6, No. 4; cited from earlier work
[2] = biological target: T1, MAO-A enzyme (Homo sapiens, UniProt P21397); experiment: MAO-Glo luminescent assay, MAO-A inhibition; assay type: biochemical; conditions: FIG. 1
T1 sequence (P21397 1-527): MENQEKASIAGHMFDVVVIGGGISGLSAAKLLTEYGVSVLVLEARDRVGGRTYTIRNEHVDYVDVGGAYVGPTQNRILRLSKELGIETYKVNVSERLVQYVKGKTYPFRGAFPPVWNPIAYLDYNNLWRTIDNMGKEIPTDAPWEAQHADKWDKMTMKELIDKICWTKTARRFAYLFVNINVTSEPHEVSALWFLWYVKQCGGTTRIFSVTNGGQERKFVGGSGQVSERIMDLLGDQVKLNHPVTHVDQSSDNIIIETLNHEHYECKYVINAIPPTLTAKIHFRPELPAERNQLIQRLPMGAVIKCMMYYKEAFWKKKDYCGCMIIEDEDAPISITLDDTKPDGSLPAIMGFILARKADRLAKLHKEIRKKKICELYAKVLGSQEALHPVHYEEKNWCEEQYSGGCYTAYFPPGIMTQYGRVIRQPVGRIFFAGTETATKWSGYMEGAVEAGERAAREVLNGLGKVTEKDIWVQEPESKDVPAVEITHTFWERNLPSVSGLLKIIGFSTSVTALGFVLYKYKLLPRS
From the text: (§1) This example describes experiments for determining monoamine oxidase (MAO) inhibition activity for cannabidiol. MAOs are enzymes located on the outer membrane of mitochondria and are involved in the catabolism of monoamine neurotransmitters. There are two well-characterized isoenzymes: MAO-A, which predominantly catabolizes serotonin and norepinephrine, and MAO-B, which preferentially catabolizes benzylamine and phenylethylamine. Dopamine and tyramine are metabolized by both isoforms.
(§2) To detect the activity of MAO, a luminescent method (MAO-Glo Assay kit, from Promega, Cat #V1401) was used. In this method, a MAO substrate (a derivative of beetle luciferin provided in the kit) is mixed with the compound to be tested (in this case, myosmine and control compounds). Then, the MAO-A or MAO-B enzyme is added to the mixture and incubated with the reaction for 1 hour at room temperature. The MAO enzymes, if not inhibited by the test compound, will convert the substrate into methyl ester luciferin. Finally, a luciferin detection reagent (provided by the kit) is added (20 minutes at room temperature) to stop the MAO reaction and convert methyl ester luciferin into D-luciferin. […] The luminescent signal is measured and recorded using a luminometer.

[3] = biological target: T2, MAO-B enzyme (Homo sapiens, UniProt P27338); experiment: MAO-Glo luminescent assay, MAO-B inhibition; assay type: biochemical; conditions: FIG. 2
T2 sequence (P27338 1-520): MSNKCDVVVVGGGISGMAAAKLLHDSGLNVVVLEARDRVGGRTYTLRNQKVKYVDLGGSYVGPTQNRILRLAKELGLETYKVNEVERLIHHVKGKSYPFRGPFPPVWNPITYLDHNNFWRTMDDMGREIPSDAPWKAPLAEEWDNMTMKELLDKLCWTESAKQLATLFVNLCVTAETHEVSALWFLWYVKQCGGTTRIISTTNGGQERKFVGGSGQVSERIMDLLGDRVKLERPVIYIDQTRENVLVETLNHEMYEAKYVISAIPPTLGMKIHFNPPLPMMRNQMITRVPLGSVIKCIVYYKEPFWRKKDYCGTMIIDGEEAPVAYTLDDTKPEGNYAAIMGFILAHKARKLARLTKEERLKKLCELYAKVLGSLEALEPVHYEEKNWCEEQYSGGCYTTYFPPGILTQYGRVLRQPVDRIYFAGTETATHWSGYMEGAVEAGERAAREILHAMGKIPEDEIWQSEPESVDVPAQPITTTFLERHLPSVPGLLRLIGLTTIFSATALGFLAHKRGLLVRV
From the text: as §1, §2

[4] = at a concentration of 7.5 mM (7,500 micromolar)

## C=C(C)[C@@H]1CCC(C)=C[C@H]1c1c(O)cc(CCCCC)cc1O [CBD, 2-[(1R,6R)-3-methyl-6-(1-methylethenyl)-2-cyclohexen-1-yl]-5-pentyl-1,3-benzenediol]
[1]
  inhibiting monoamine oxidase (MAO) activity, prior report: ineffective
[2]; compared with nornicotine
  MAO-A inhibition, result in words: potent inhibitor of MAO-A, in fact to an even greater extent than nornicotine
[2]; [4]
  inhibition at 7500 µM: ~50%
[3]; compared with MAO-A activity
  MAO-B inhibition, result in words: also inhibits MAO-B activity, although to a lesser extent than MAO-A activity
[3]; [4]
  inhibition at 7500 µM: ~30%
